Assay results reported in paper doi:10.1101/2020.10.11.335026v1, “Acquisition of a type 3 secretion signal in an housekeeping enzyme shaped glycogen metabolism in Chlamydia” (biorxiv, 2020).

How the values were obtained:
Assay type in all cases: biochemical
CpsG (HIS-CpsG) [1] = molecular target: T1, CpsG (HIS-CpsG) (Escherichia coli, UniProt P24175); test: Glc1P conversion with and without cofactor by HPAEC-PAD; conditions: 0.2 mg/mL Glc1,6diP, 0.66 mg/ml Glc1P, 10 mM Tris-HCl pH 8.0, 37 °C, 20 min
T1 construct: gene manB; His-tagged, recombinant from E. coli BL21(DE3), Ni-NTA and size exclusion; tag terminus printed as C-terminal in Methods
T1 sequence (P24175 1-456): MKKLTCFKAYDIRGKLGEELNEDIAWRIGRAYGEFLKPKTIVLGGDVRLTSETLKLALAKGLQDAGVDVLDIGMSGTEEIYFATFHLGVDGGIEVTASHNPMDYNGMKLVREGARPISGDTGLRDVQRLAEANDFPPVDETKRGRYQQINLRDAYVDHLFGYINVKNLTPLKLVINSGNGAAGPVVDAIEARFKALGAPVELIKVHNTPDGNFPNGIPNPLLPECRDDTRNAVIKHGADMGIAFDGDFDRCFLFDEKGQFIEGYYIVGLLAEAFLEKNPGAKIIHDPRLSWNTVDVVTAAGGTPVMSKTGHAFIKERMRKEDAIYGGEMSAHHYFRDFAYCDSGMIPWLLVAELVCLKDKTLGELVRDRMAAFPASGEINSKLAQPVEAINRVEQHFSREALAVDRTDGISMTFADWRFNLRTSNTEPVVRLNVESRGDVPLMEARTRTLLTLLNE

CT815 (HIS-CT815) = molecular target: T2, CT815 (HIS-CT815) (Chlamydia trachomatis, UniProt B0B944); test: conversion to Glc6P by HPAEC-PAD; conditions: 0.66 mg/ml Glc1P, 0.1 mg/mL enzyme, 0.2 mg/mL Glc1,6diP, 10 mM Tris-HCl pH 8.0, 37 °C, 20 min
T2 construct: gene glmM; His-tagged, in pET28a, recombinant from E. coli BL21(DE3), Ni-NTA and size exclusion; tag printed as amino-terminal in Results but C-terminal in Methods
T2 sequence (B0B944 whole entry): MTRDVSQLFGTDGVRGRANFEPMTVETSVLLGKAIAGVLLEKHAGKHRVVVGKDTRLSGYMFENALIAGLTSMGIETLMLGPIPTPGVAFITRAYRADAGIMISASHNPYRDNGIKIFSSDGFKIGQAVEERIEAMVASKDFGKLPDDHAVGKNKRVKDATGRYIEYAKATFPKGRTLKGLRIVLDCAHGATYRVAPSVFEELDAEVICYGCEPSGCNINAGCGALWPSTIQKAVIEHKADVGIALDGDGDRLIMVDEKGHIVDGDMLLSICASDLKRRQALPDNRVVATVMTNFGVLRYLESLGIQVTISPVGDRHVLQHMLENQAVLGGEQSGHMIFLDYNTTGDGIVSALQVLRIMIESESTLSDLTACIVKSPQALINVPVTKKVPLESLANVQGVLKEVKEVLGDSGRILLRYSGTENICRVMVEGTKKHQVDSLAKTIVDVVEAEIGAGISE

CCA00034 (HIS-CCA00034) [2] = molecular target: T3, CCA00034 (HIS-CCA00034) (Chlamydia caviae, UniProt Q823R2); test: conversion to Glc6P by HPAEC-PAD; conditions: 0.66 mg/ml Glc1P, 0.1 mg/mL enzyme, 0.2 mg/mL Glc1,6diP (not required), 10 mM Tris-HCl pH 8.0, 37 °C, 20 min
T3 construct: gene CCA_00344; His-tagged, recombinant from E. coli BL21(DE3), Ni-NTA and size exclusion; tag printed as amino-terminal in Results but C-terminal in Methods; tag not reported cut
T3 sequence (Q823R2 entry or part of it): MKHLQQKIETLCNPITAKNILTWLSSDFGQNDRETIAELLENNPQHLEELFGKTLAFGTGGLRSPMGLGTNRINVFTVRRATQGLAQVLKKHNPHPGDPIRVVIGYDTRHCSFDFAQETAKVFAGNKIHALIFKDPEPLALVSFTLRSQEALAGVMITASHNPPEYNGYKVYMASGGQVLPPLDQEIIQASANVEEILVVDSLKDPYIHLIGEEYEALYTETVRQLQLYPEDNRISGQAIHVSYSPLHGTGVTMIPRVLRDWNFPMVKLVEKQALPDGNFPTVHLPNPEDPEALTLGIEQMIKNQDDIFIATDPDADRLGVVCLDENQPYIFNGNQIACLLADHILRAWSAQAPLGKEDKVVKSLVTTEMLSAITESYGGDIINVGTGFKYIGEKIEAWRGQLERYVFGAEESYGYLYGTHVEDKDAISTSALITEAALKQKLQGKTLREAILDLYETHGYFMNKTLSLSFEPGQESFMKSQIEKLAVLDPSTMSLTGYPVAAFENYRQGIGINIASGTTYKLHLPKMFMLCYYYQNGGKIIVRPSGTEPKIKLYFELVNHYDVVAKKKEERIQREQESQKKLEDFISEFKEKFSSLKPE

CpsG (HIS-CpsG) [3] = molecular target: T1, CpsG (HIS-CpsG); test: conversion to Glc6P by HPAEC-PAD; conditions: 0.66 mg/ml Glc1P, 0.1 mg/mL enzyme, 0.2 mg/mL Glc1,6diP, 10 mM Tris-HCl pH 8.0, 37 °C, 20 min
CCA00034 (HIS-CCA00034) [4] = molecular target: T3, CCA00034 (HIS-CCA00034); test: reverse reaction to Glc1P by HPAEC-PAD; conditions: 0.33 mg/ml Glc6P, 0.1 mg/mL enzyme, 0.2 mg/mL Glc1,6diP, 10 mM Tris-HCl pH 8.0, 37 °C, 20 min

O=P(O)(O)OC[C@H]1O[C@H](OP(=O)(O)O)[C@H](O)[C@@H](O)[C@@H]1O [Glc1,6diP]
Glc1P conversion with and without cofactor by HPAEC-PAD (CpsG (HIS-CpsG) [1]): CpsG required the presence of Glc1,6diP for optimal conversion of Glc1P into Glc6P

O=P(O)(O)O[C@H]1O[C@H](CO)[C@@H](O)[C@H](O)[C@H]1O [Glc1P]
conversion to Glc6P by HPAEC-PAD (CT815 (HIS-CT815)): only low levels of Glc6P were detected in the presence of HIS-CT815
conversion to Glc6P by HPAEC-PAD (CCA00034 (HIS-CCA00034) [2]): Incubation of Glc1P in the presence of HIS-CCA00034 led to its full conversion into Glc6P
conversion to Glc6P by HPAEC-PAD (CpsG (HIS-CpsG) [3]): HIS-CpsG required the presence of Glc1,6diP to convert Glc1P into Glc6P

O=P(O)(O)OC[C@H]1OC(O)[C@H](O)[C@@H](O)[C@@H]1O (some centres unmarked) [Glc6P]
reverse reaction to Glc1P by HPAEC-PAD (CCA00034 (HIS-CCA00034) [4]): very low amounts of Glc1P were detected after incubation with HIS-CCA00034 or HIS-CpsG
